Test: Solubility of fluvastatin sodium in solvents
Type: physicochemical
Conditions: in water at 100° C.; read-out: Concentration of solution obtainable (solubility)
Text: Fluvastatin sodium Form XLI can be prepared by precipitating fluvastatin sodium from a mixture of water and acetonitrile. Fluvastatin sodium should first be dissolved in water. The water may be heated in order to produce a more concentrated solution and maximized recovery of Form XLI. […] The addition is done at whatever elevated temperature was used to dissolve the starting material or at higher temperature. The addition is dropwise and will generally require adding a excess of acetonitrile over the amount of water that was used. For example, we used a little less than four volumes of acetonitrile. The resulting heterogeneous mixture is then allowed to cool. Before isolating the fluvastatin sodium Form XLI that precipitates. The recovery can be improved by adding an addition portion of acetonitrile after cooling.
Fluvastatin sodium Form L can be prepared by precipitation from a mixture of methanol and ethyl acetate. The fluvastatin sodium starting material, in any crystalline form or amorphous, should first be dissolved in the methanol. […] The starting material can be dissolved either at ambient or elevated temperature, e.g. the boiling point of methanol. Once dissolved, precipitation of Form L is induced by dropwise addition of ethyl acetate to the solution at elevated temperature. The amount of ethyl acetate used is preferably about three times the volume of methanol. […]

Compound: CC(C)n1c(/C=C/C(O)CC(O)CC(=O)O)c(-c2ccc(F)cc2)c2ccccc21 (stereo not drawn) [Fluvastatin sodium, [R*,S*-(E)]-(±)-7-[3-(4-fluorophenyl)-1-(1-methylethyl)-1H-indol-2-yl]-3,5-dihydroxy-6-heptenoic acid monosodium]
- solubility: ≥ 375 mg/mL
